Earlier results as cited in US20230165862A1, “CANCER THERAPY USING 3,5-DISUBSTITUTED BENZENE ALKYNYL COMPOUND AND MEK INHIBITOR” (TAIHO PHARMACEUTICAL CO., LTD., priority 2020, published 2023).

Experiments:
[1] = human; steady-state PK, dose of 40 mg in Stage 1 (21/7), once daily
[2] = human; 30 mg or more per dose twice daily
[3] = human; 0.5 mg or more per dose once daily

Structure (SMILES): O=C(c1ccc(F)c(F)c1Nc1ccc(I)cc1F)N1CC(O)([C@@H]2CCCCN2)C1 [Cobimetinib, [3,4-difluoro-2-[(2-fluoro-4-iodophenyl)amino]phenyl][3-hydroxy-3-[(2S)-2-piperidinyl]-1-azetidinyl]methanone]
- Time a concentration higher than 53 ng/mL (corresponds to 100 nM) is achieved [1]: 14 h

Structure (SMILES): Cn1cnc2c(F)c(Nc3ccc(Br)cc3F)c(C(=O)NOCCO)cc21 [Binimetinib, 5-[(4-bromofluorophenyl)amino]-4-fluoro-N-(2-hydroxyethoxy)-1-methyl-1H-benzimidazole-6-carboxamide]
- Time a blood concentration of 18.45 ng/mL (corresponds to 100 nM) is achieved [2]: more than 8 hours

Structure (SMILES): CC(=O)Nc1cccc(-n2c(=O)n(C3CC3)c(=O)c3c(Nc4ccc(I)cc4F)n(C)c(=O)c(C)c32)c1 [Trametinib, N-(3-{3-cyclopropyl-5-[(2-fluoro-4-iodophenyl)amino]-6,8-dimethyl-2,4,7-trioxo-3,4,6,7-tetrahydropyrido[4,3-d]pyrimidin-1(2H)-yl}phenyl)acetamide]
- Time a blood concentration of 1.3 ng/mL (corresponds to 10 nM) is achieved [3]: ≥ 24 h
